Results reported in ChEMBL document CHEMBL1153244, “Tetrasubstituted pyridines as potent and selective AKT inhibitors: Reduced CYP450 and hERG inhibition of aminopyridines” (Bioorg Med Chem Lett, 2010).

How the values were obtained:
[1] = tested on: Canis familiaris; experiment: Dose normalized AUC (0 to t) in dog at 2.4 mg, iv; type: ADME, organism-based, Canis lupus familiaris; settings: in vivo
[2] = tested on: Rhesus monkey; experiment: Dose normalized AUC (0 to t) in monkey at 3.1 mg, iv; type: ADME, organism-based, Macaca mulatta; settings: in vivo
[3] = tested on: Mus musculus; experiment: Dose normalized AUC (0 to t) in mouse at 9.6 mg, ip; type: ADME, organism-based; settings: in vivo
[4] = Clearance in dog at 2.4 mg, iv; type: ADME, organism-based, Canis lupus familiaris; settings: in vivo
[5] = Clearance in monkey at 3.1 mg, iv; type: ADME, organism-based, Macaca mulatta; settings: rhesus monkey, in vivo
[6] = tested on: Rattus norvegicus; experiment: Dose normalized AUC (0 to t) in rat at 10.6 mg, iv; type: ADME, organism-based; settings: in vivo
[7] = Clearance in rat at 10.6 mg, iv; type: ADME, organism-based; settings: in vivo
[8] = tested on: Mus musculus; experiment: Antitumor activity against human BT474 cells xenografted in mouse assessed as reduction in tumor volume at 30 mg/kg, ip; set-up: scale not given: the % may be the effect or the level left; settings: route intraperitoneal
[9] = tested on: Rhesus monkey; experiment: Dose normalized AUC (0 to t) in monkey at 3.0 mg, iv; type: ADME, organism-based, Macaca mulatta; settings: in vivo
[10] = target: T1, Voltage-gated inwardly rectifying potassium channel KCNH2 (Homo sapiens, UniProt Q12809); experiment: Inhibition of human ERG relative to control
[11] = target: Cytochrome P450 3A4 (Homo sapiens, UniProt P08684); experiment: Inhibition of CYP3A4; type: ADME
[12] = target: T1, Voltage-gated inwardly rectifying potassium channel KCNH2; experiment: Inhibition of human ERG
[13] = Clearance in rat at 2.4 mg, iv; type: ADME, organism-based; settings: in vivo
[14] = Clearance in monkey at 3.0 mg, iv; type: ADME, organism-based, Macaca mulatta; settings: rhesus monkey, in vivo
[15] = tested on: Mus musculus; experiment: Antitumor activity against human BT474 cells xenografted in ip dosed mouse assessed as inhibition of tumor growth; settings: BT-474
[16] = Clearance in dog at 3.1 mg, iv; type: ADME, organism-based, Canis lupus familiaris; settings: in vivo
[17] = target: RAC-gamma serine/threonine-protein kinase (Homo sapiens, UniProt Q9Y243); experiment: Inhibition of human AKT3
[18] = tested on: BT-474; experiment: Antiproliferative activity against human BT474 cells; type: functional, cell-based
[19] = tested on: Rattus norvegicus; experiment: Dose normalized AUC (0 to t) in rat at 2.4 mg, iv; type: ADME, organism-based; settings: in vivo
[20] = tested on: Canis familiaris; experiment: Dose normalized AUC (0 to t) in dog at 3.1 mg, iv; type: ADME, organism-based, Canis lupus familiaris; settings: in vivo
[21] = Clearance in mouse at 2.2 mg, iv; type: ADME, organism-based; settings: in vivo
[22] = target: RAC-alpha serine/threonine-protein kinase (Homo sapiens, UniProt P31749); experiment: Inhibition of human AKT1
[23] = target: RAC-beta serine/threonine-protein kinase (Homo sapiens, UniProt P31751); experiment: Inhibition of human AKT2
[24] = tested on: Mus musculus; experiment: Dose normalized AUC (0 to t) in mouse at 2.2 mg, iv; type: ADME, organism-based; settings: in vivo

Sequence of Cytochrome P450 3A4 (P08684 whole entry): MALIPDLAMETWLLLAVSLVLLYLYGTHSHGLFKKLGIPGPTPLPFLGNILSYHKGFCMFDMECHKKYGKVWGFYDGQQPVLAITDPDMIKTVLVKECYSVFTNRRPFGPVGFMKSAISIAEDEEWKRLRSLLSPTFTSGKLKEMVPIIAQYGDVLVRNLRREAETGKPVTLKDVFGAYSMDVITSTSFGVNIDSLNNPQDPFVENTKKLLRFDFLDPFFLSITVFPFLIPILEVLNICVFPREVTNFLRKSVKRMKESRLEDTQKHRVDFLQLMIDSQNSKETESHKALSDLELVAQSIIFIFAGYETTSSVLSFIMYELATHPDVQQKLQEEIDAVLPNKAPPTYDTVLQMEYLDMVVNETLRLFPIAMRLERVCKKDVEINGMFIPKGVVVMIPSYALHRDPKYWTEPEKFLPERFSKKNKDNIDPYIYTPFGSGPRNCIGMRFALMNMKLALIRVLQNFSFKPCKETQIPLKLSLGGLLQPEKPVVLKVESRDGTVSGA
Sequence of RAC-gamma serine/threonine-protein kinase (Q9Y243 whole entry): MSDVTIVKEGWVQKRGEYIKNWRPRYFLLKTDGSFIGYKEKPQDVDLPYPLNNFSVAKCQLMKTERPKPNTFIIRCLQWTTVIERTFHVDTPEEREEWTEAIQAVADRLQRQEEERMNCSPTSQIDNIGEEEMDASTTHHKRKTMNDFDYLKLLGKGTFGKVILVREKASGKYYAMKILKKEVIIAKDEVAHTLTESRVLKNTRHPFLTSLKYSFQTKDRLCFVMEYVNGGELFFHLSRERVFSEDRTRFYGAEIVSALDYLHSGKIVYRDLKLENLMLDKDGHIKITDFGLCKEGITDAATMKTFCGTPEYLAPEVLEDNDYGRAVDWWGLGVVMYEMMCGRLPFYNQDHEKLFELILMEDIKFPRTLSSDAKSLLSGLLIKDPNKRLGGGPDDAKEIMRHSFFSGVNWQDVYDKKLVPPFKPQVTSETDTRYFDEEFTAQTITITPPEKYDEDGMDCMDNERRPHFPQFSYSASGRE
Sequence of RAC-alpha serine/threonine-protein kinase (P31749 whole entry): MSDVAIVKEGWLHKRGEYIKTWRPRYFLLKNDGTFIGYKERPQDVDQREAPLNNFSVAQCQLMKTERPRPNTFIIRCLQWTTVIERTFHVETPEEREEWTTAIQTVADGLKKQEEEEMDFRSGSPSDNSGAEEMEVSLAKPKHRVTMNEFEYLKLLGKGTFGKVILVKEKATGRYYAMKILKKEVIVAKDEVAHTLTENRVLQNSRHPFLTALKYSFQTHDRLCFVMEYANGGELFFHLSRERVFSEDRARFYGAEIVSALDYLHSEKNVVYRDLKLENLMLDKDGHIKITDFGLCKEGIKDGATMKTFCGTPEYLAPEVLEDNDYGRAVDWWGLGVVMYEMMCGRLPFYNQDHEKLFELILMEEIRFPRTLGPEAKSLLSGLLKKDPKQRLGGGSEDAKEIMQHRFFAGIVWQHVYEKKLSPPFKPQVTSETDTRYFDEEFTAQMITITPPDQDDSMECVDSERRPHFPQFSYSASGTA
Sequence of RAC-beta serine/threonine-protein kinase (P31751 whole entry): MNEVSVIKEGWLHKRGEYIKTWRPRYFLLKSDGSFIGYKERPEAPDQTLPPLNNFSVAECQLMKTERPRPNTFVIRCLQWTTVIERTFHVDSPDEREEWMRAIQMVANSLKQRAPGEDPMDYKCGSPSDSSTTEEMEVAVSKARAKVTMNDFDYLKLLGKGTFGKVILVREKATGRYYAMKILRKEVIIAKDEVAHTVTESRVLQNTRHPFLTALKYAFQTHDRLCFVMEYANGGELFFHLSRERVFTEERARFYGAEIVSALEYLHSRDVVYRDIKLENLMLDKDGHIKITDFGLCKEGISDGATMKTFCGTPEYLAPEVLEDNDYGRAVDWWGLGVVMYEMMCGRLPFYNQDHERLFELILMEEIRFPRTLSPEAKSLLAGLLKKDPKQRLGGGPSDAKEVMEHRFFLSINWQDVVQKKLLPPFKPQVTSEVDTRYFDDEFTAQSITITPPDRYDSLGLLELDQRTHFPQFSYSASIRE
T1 sequence (Q12809 whole entry): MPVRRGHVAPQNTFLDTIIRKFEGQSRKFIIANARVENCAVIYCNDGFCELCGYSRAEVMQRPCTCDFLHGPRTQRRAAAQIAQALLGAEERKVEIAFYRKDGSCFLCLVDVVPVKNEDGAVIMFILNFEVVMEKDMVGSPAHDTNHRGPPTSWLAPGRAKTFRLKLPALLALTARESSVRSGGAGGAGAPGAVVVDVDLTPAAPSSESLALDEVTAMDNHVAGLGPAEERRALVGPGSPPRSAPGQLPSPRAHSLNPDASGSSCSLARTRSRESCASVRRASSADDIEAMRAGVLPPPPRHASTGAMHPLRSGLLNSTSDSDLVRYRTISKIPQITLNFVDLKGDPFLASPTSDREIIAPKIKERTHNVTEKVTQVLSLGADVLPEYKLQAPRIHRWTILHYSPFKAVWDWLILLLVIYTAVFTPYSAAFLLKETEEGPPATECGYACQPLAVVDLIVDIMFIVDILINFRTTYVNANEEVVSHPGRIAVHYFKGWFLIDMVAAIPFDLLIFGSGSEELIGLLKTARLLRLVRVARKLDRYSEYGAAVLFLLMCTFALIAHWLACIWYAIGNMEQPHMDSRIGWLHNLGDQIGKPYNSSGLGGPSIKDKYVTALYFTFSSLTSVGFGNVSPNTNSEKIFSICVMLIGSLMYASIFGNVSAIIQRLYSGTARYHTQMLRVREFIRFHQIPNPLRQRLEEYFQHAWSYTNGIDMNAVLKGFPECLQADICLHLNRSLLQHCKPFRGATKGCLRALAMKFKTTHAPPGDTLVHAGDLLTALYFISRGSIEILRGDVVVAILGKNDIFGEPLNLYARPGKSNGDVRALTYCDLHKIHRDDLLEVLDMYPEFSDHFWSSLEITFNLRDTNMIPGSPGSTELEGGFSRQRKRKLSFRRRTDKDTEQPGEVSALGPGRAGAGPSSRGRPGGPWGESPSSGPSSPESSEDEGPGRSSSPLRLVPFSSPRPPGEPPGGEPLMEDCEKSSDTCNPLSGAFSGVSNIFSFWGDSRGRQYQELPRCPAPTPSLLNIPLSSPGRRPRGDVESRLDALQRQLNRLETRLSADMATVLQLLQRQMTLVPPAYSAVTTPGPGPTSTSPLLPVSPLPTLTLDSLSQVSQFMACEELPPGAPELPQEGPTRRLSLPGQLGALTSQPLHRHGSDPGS

| Structure (SMILES) | IC50 [11] | IC50 [17] | IC50 [18] | IC50 [22] | IC50 [23] | further results |
| --- | --- | --- | --- | --- | --- | --- |
| Cc1n[nH]c2ncc(-c3cc(OC[C@@H](N)Cc4c[nH]c5ccccc45)cnc3-c3ccoc3)nc12 | – | – | – | – | – | AUC [1]: 425 ng·h/mL/mg; AUC [2]: 386 ng·h/mL/mg; AUC [3]: 96 ng·h/mL/mg; clearance [4]: 34.4 mL/min/kg; clearance [5]: 39.1 mL/min/kg; AUC [6]: 301 ng·h/mL/mg; clearance [7]: 53.2 mL/min/kg |
| Cc1occc1-c1nc(N)c(OC[C@@H](N)Cc2c[nH]c3ccccc23)cc1-c1cnc2[nH]nc(C)c2n1 | 5000 nM | 2 nM | 310 nM | 1 nM | 19 nM | Activity [8]: 59%; AUC [9]: 853 ng·h/mL/mg; inhibition (INH) [10]: 95%; IC50 [12]: 10400 nM; clearance [13]: 46 mL/min/kg; clearance [14]: 22.3 mL/min/kg; Activity [15]: Dose-dependent effect; clearance [16]: 25.3 mL/min/kg; AUC [19]: 303 ng·h/mL/mg; AUC [20]: 630 ng·h/mL/mg; clearance [21]: 98.9 mL/min/kg; AUC [24]: 170 ng·h/mL/mg |
| Cc1occc1-c1nc(N)c(OC[C@@H](N)Cc2c[nH]c3ccccc23)cc1-c1cnc2[nH]nc(C)c2c1 | 1000 nM | 2 nM | 470 nM | 1 nM | 15 nM | – |
| Cc1occc1-c1nc(N)c(OC[C@@H](N)Cc2c(C(N)=O)[nH]c3ccccc23)cc1-c1cnc2[nH]nc(C)c2n1 | – | 1 nM | > 10000 nM | 1 nM | 15 nM | – |
| Cc1occc1-c1nc(N)c(OC[C@@H](N)Cc2ccccc2)cc1-c1cnc2[nH]nc(C)c2n1 | 3200 nM | 6 nM | 580 nM | 6 nM | 130 nM | – |
| Cc1occc1-c1nc(N)c(OC[C@@H](N)Cc2c[nH]c3ccccc23)cc1-c1cc2c(C)n[nH]c2cn1 | 1300 nM | 3 nM | 300 nM | 1 nM | 13 nM | – |
| Cc1occc1-c1ncc(OC[C@@H](N)Cc2c[nH]c3ccccc23)cc1-c1cnc2[nH]nc(C)c2n1 | 630 nM | – | 290 nM | 1 nM | 25 nM | inhibition (INH) [10]: 83.4% |
| CCNc1nc(-c2ccoc2)c(-c2cnc3[nH]nc(C)c3n2)cc1OC[C@@H](N)Cc1ccccc1 | 5000 nM | 500 nM | 3900 nM | 500 nM | 6300 nM | – |
| Cc1occc1-c1nc(N)c(OC[C@@H](N)Cc2c[nH]c3ccccc23)cc1-c1ccc2[nH]nc(C)c2c1 | 100 nM | 1 nM | 200 nM | 3 nM | 15 nM | – |
| Cc1occc1-c1nc(N)c(OC[C@@H](N)Cc2c(Cl)[nH]c3ccccc23)cc1-c1cnc2[nH]nc(C)c2n1 | 500 nM | 2 nM | 150 nM | 1 nM | 12 nM | – |
| Cc1occc1-c1nc(N)c(OC[C@@H](N)Cc2c(C#N)[nH]c3ccccc23)cc1-c1cnc2[nH]nc(C)c2n1 | 1600 nM | 1 nM | 2800 nM | 1 nM | 7 nM | – |
| Cc1n[nH]c2ncc(-c3cc(OC[C@@H](N)Cc4c[nH]c5ccccc45)c(C#N)nc3-c3ccoc3)nc12 | 790 nM | 19 nM | – | 10 nM | 250 nM | – |
| Cc1nc(-c2ccoc2)c(-c2cnc3[nH]nc(C)c3n2)cc1OC[C@@H](N)Cc1c[nH]c2ccccc12 | 630 nM | 10 nM | 1260 nM | 3 nM | 63 nM | – |
